The text below walks through data of US11952363B2, “Piperazine compounds for the treatment of autoimmune disease” (Hoffmann-La Roche Inc., priority 2018, dated 2024).

One data set has as its target T1, human TLR8 (Homo sapiens, UniProt Q9NR97).
T1 sequence (Q9NR97 27-1041): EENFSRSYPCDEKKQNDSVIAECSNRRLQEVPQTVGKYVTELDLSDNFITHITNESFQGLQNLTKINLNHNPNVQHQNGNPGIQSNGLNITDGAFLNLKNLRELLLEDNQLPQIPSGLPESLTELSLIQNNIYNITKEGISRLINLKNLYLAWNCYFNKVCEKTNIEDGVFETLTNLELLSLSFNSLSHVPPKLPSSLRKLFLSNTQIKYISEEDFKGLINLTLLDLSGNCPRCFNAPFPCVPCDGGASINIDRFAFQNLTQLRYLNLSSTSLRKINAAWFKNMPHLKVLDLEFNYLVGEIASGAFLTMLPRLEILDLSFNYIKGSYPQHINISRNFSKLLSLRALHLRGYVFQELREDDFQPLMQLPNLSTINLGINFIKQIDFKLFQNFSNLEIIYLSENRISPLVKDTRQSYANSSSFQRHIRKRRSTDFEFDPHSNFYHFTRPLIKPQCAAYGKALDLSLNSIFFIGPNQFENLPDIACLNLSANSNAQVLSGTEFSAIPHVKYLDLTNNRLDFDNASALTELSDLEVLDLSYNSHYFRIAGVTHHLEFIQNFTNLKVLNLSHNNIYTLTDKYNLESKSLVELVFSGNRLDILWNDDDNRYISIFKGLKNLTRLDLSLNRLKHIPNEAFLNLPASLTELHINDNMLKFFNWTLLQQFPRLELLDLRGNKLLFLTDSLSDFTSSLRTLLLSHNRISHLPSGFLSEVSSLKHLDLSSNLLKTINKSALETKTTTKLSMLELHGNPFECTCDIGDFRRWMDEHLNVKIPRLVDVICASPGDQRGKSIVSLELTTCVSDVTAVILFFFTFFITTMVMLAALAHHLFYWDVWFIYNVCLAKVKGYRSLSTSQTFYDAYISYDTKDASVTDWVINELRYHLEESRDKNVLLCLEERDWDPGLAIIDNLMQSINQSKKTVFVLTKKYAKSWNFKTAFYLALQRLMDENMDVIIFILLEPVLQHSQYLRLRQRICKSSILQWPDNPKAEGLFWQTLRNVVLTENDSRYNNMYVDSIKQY
Put plainly: HEK293-Blue-hTLR-8 cells assay (SEAP reporter, R848 stimulation). The following applies: HEK293-Blue-hTLR8 cells, R848 ligand, 20 hrs incubation; read-out: HEK/hTLR8 IC50. It counts as cell-based. On the procedure:
The following tests were carried out in order to determine the activity of the compounds of formula (I) in HEK293-Blue-hTLR-7/8/9 cells assay.
A stable HEK293-Blue-hTLR-8 cell line was purchased from InvivoGen (Cat.#: hkb-htlr8, San Diego, California, USA). These cells were originally designed for studying the stimulation of human TLR8 by monitoring the activation of NF-κB. A SEAP (secreted embryonic alkaline phosphatase) reporter gene was placed under the control of the IFN-β minimal promoter fused to five NF-κB and AP-1-binding sites. The SEAP was induced by activating NF-κB and. AP-1 via stimulating HEK-Blue hTLR8 cells with TLR8 ligands. Therefore the reporter expression was declined by TLR8 antagonist under the stimulation of a ligand, such as R848, for incubation of 20 hrs. The cell culture supernatant SEAP reporter activity was determined using QUANTI-Blue™ kit (Cat.#: rep-qb1, Invivogen, San Diego, Ca, USA) at a wavelength of 640 nm, a detection medium that tunas purple or blue in the presence of alkaline phosphatase.
HEK293-Blue-hTLR8 cells were incubated at a density of 250,000˜450,000 cells/mL in a volume of 170 μL in a 96-well plate in Dulbecco's Modified Eagle's medium (DMEM) containing 4.5 g/L glucose, 50 U/mL penicillin, […], […], 2 mM L-glutamine, 10% (v/v) heat-inactivated fetal bovine serum with addition of 20 μL test compound in a serial dilution in the presence of final DMSO at 1% and 10 μL of 60 uM R848 in above DMEM, perform incubation under 37° C. in a CO2 incubator for 20 hrs. Then 20 μL of the supernatant from each well was incubated with […] Quanti-blue substrate solution at 37° C. for 2 hrs and the absorbance was read at 620-655 nm using a spectrophotometer. The signalling pathway that TLR8 activation leads to downstream NF-κB activation has been widely accepted, and therefore similar reporter assay was modified for evaluating TLR8 antagonist.

The target of a further data set is T2, CYP2D6 (Homo sapiens, UniProt P10635).
T2 construct: tissue BD-Gentest 452117; host or cells: human liver microsomes
T2 sequence (P10635 whole entry): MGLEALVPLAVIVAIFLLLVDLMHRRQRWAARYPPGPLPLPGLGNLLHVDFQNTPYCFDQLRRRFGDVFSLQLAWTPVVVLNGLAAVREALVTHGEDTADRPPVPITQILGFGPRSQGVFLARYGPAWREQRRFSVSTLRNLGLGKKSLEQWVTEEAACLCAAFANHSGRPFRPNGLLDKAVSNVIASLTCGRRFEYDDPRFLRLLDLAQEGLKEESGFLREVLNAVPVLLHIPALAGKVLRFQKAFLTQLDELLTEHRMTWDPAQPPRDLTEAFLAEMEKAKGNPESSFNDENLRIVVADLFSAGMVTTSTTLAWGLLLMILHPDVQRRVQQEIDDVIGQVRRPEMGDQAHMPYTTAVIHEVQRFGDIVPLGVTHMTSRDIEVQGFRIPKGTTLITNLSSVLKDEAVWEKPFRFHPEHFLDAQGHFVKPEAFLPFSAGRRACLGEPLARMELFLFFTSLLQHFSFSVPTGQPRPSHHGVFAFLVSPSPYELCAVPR
In words: CYP inhibition assay in human liver microsome. It counts as in vitro ADME. Conditions: liver microsomes, probe dextromethorphan, 10 μM compound, dextromethorphan substrate, percentage inhibition < 0: not or weak inhibitor, read-out: CYP 2D6 inhibition % @10 μM. On the procedure:
This is a high throughput screening assay used for assessment of reversible inhibition of CYP2D6 activity of test compounds in human liver microsome (HLM) in early discovery stage.
10 mM DMSO stock solutions of test compounds were diluted in DMSO to generate 2 mM intermediate stock solution. 250 nL of intermediate stock solution were transferred in duplicate into 3 separate 384 well microtitre plates (assay-ready plates). A mixture of HLM and each substrate was made up. 45 μL of HLM substrate mix was then transferred to each well of an assay ready plate and mixed. The negative (solvent) and positive control (standard inhibitor for CYP 2D6) were included in each assay ready plate. The assay ready plate was warmed to 37° C. in an incubator over 10 minutes. 5μL pre-warmed NADPH regenerating system was added to each incubation well to start the reaction. Final incubation volume was 50 μL. The assay plate then was placed back in the 37° C. incubator. After 10 minutes incubation, incubates were quenched by addition of 50 μL 100% acetonitrile containing internal standards (20 ng/mL D3-Dextrorphan). The supernatants were collected for RapidFire/MS/MS analysis.
RapidFire online solid phase extraction/sample injection system (Agilent) coupled with API4000 triple quadrupole mass spectrometer (AB Sciex) were used for sample analysis. The mobile phase composed of acetonitrile and water supplemented with 0.1% formic acid. A C4 solid phase extraction cartridge is used for sample separation. MS detection is achieved in positive ion MRM mode.
Peak areas for substrate, metabolite and internal standard are determined using the RapidFire integrator software (version 3.6.12009.12296). Peak area ratios (PAR) of metabolite and internal standard (stable-labelled metabolite) are then calculated. The measurement window for each experiment is then defined:
PAR (0% activity)=average PAR for all incubations containing concentrated inhibitor;
Par (100% activity)=average PAR for all incubations containing no inhibitor (DMSO controls);
% Activity (test inhibitor)
=[PAR(test inhibitor)-PAR(0% activity)]/[PAR(100% activity)-PAR(0% activity)];
% Inhibition (test inhibitor)=100-% Activity (test inhibitor).

Structures are written as SMILES.

Usually inhibition stands for the change of the read-out against control, counted positive when it falls. On to `C[C@@H]1CN(c2ccc(C#N)c3ncccc23)C[C@H](C)N1Cc1ccc(N2CCNCC2)cc1` [Example 1, 5-[(3R,5S)-3,5-Dimethyl-4-[(4-piperazin-1-ylphenyl)methyl]piperazin-1-yl]quinoline-8-carbonitrile], for which the IC50 on human TLR8 came out at 16 nM. The inhibition at 10 min, 10 µM on CYP2D6 was found to be 17%.
In the case of `C[C@@H]1CN(c2ccc(C#N)c3ncccc23)C[C@@H](C)N1Cc1ccc(N2CCNCC2)cc1` [Example 2], the IC50 on human TLR8 came out at 32 nM.
Turning to `C[C@@H]1CN(c2ccc(C#N)c3ncccc23)C[C@H](C)N1Cc1ccc(N2CCNCC2)nc1` [Example 3, 5-[(3R,5S)-3,5-Dimethyl-4-[(6-piperazin-1-yl-3-pyridyl)methyl]piperazin-1-yl]quinoline-8-carbonitrile], the IC50 at human TLR8 was 31 nM. Further, the inhibition at 10 min, 10 µM at CYP2D6 is -2.5%.
For `C[C@@H]1CN(c2ccc(C#N)c3ncccc23)C[C@H](C)N1Cc1ncc(N2CCNCC2)cn1` [Example 4, 5-[(3S,5R)-3,5-Dimethyl-4-[(5-piperazin-1-ylpyrimidin-2-yl)methyl]piperazin-1-yl]quinoline-8-carbonitrile], the IC50 on human TLR8 turned out to be 19 nM.
With `C[C@@H]1CN(c2ccc(C#N)c3ncccc23)C[C@H](C)N1Cc1ccc(N2CCNCC2)cn1` [Example 5, 5-[(3S,5R)-3,5-Dimethyl-4-[(5-piperazin-1-yl-2-pyridyl)methyl]piperazin-1-yl]quinoline-8-carbonitrile], the IC50 on human TLR8 came out at 15 nM. The inhibition at 10 min, 10 µM at CYP2D6 came out at 5.5%.
On the same counts, the results for `C[C@@H]1CN(c2ccc(C#N)c3ncccc23)C[C@H](C)N1Cc1ncc(N2CCN(C(=O)CN(C)C)CC2)cn1` [Example 6, 5-[(3S,5R)-4-[[5-[4-[2-(Dimethylamino)acetyl]piperazin-1-yl]pyrimidin-2-yl]methyl]-3,5-dimethyl-piperazin-1-yl]quinoline-8-carbonitrile] are 53 nM and 5%.
As for `C[C@@H]1CN(c2ccc(C#N)c3ncccc23)C[C@H](C)N1Cc1ccc(N2CCN(C)CC2)cn1` [Example 7, 5-[(3S,5R)-3,5-dimethyl-4-[[5-(4-methylpiperazin-1-yl)-2-pyridyl]methyl]piperazin-1-yl]quinoline-8-carbonitrile], the IC50 at human TLR8 was 19 nM.
Take `C[C@@H]1CN(c2ccc(C#N)c3ncccc23)C[C@H](C)N1Cc1ccc(N2CC3CNCC(C2)O3)cn1` [Example 8, 5-[(3S,5R)-3,5-Dimethyl-4-[[5-(9-oxa-3,7-diazabicyclo[3.3.1]nonan-3-yl)-2-pyridyl]methyl]piperazin-1-yl]quinoline-8-carbonitrile]: the IC50 at human TLR8 is 36 nM. Further, on CYP2D6, the inhibition at 10 min, 10 µM turned out to be 12.5%.
The matching figures for `C[C@@H]1CN(c2ccc(C#N)c3ncccc23)C[C@H](C)N1Cc1ccc(N[C@@H]2CNC[C@@H]2F)cn1` [Example 9, 5-[(3R,5S)-3,5-Dimethyl-4-[[5-[[(3R,4S)-4-fluoropyrrolidin-3-yl]amino]-2-pyridyl]methyl]piperazin-1-yl]quinoline-8-carbonitrile]: 22 nM and -6.5%.
On the same counts, the results for `C[C@@H]1CN(c2ccc(C#N)c3ncccc23)C[C@H](C)N1Cc1ccc(N2CCN(C(=O)C3CCCN3)CC2)cn1` (stereo partly drawn) [Example 10, 5-[(3R,5S)-3,5-Dimethyl-4-[[5-[4-(pyrrolidine-2-carbonyl)piperazin-1-yl]-2-pyridyl]methyl]piperazin-1-yl]quinoline-8-carbonitrile] are 52 nM and 4.5%.
On the same counts, the results for `C[C@@H]1CN(c2ccc(C#N)c3ncccc23)C[C@H](C)N1Cc1ccc(N2CCN(C(=O)CN(C)C)CC2)cn1` [Example 11, 5-[(3S,5R)-4-[[5-[4-[2-(Dimethylamino)acetyl]piperazin-1-yl]-2-pyridyl]methyl]-3,5-dimethyl-piperazin-1-yl]quinoline-8-carbonitrile] are 35 nM and 23%.
Turning to `C[C@@H]1CN(c2ccc(C#N)c3ncccc23)C[C@H](C)N1Cc1ccc(N2CCNCC2CO)cc1` (stereo partly drawn) [Example 12, 5-[(3R,5S)-4-[[4-[2-(Hydroxymethyl)piperazin-1-yl]phenyl]methyl]-3,5-dimethyl-piperazin-1-yl]quinoline-8-carbonitrile], the IC50 at human TLR8 came to 33 nM.
For `C[C@@H]1CN(c2ccc(C#N)c3ncccc23)C[C@H](C)N1CC(=O)N1CCc2nc(N3CCNCC3)ccc2C1` [Example 13, 5-[(3R,5S)-3,5-Dimethyl-4-[2-oxo-2-(2-piperazin-1-yl-7,8-dihydro-5H-1,6-naphthyridin-6-yl)ethyl]piperazin-1-yl]quinoline-8-carbonitrile], at human TLR8, the IC50 came to 21 nM.
On the same count and under the same terms, as for `C[C@@H]1CN(c2ccc(C#N)c3ncccc23)C[C@H](C)N1CC(=O)N1CCc2cc(N3CCNCC3)ccc2C1` [Example 14, 5-[(3R,5S)-3,5-Dimethyl-4-[2-oxo-2-(6-piperazin-1-yl-3,4-dihyrdo-1H-isoquinolin-2-yl)ethyl]piperazin-1-yl]quinoline-8-carbonitrile], the figure is 20 nM.
As to `C[C@@H]1CN(c2ccc(C#N)c3ncccc23)C[C@H](C)N1CC(=O)N1CCc2ccc(N3CCNCC3)cc2C1` [Example 15, 5-[(3R,5S)-3,5-dimethyl-4-[2-pxp-2-(7-piperazin-1-yl-3,4-dihydro-1H-isoquinolin-2-yl)ethyl]piperazin-1-yl]quinoline-8-carbonitrile], on human TLR8, the IC50 was 46 nM. For the same compound, at CYP2D6, the inhibition at 10 min, 10 µM turned out to be 19%.
